In PubChem BioAssay AID1963982 (Molecular Pharmacology Branch, DTP, NCI, 2024):
Values belong to the compound of their own block, whether it stands above or below them.

Test system: 313798-341-R-J2-PDC spheroids, viability
Assay: Anticancer human tumor 313798-341-R-J2-PDC patient-derived cervical squamous cell carcinoma cell line growth inhibition [PI3K]
Conditions: spheroids with HUVEC and MSC; for IC50: curve of first compound; for viability, T/C: stronger effect = lower value
Procedure, shortened: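 Targeted small molecules plus PI3K inhibitors, half-log dose series from Cmax (default top 10 microM), were applied to heterotypic spheroids of cancer cells with HUVEC and MSCs. Viability indicated growth inhibition.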

[1] = second compound 0.00316 µM, first compound 0.0316 µM
[2] = second compound 0.00316 µM, first compound 0.1 µM
[3] = second compound 0.00316 µM, first compound 0.316 µM
[4] = second compound 0.00316 µM, first compound 1 µM
[5] = second compound 0.00316 µM, first compound 3.16 µM
[6] = second compound 0.00316 µM, first compound 10 µM
[7] = second compound 0.01 µM, first compound 0.0316 µM
[8] = second compound 0.01 µM, first compound 0.1 µM
[9] = second compound 0.01 µM, first compound 0.316 µM
[10] = second compound 0.01 µM, first compound 1 µM
[11] = second compound 0.01 µM, first compound 3.16 µM
[12] = second compound 0.01 µM, first compound 10 µM
[13] = second compound 0.0316 µM, first compound 0.0316 µM
[14] = second compound 0.0316 µM, first compound 0.1 µM
[15] = second compound 0.0316 µM, first compound 0.316 µM
[16] = second compound 0.0316 µM, first compound 1 µM
[17] = second compound 0.0316 µM, first compound 3.16 µM
[18] = second compound 0.0316 µM, first compound 10 µM
[19] = second compound 0.1 µM, first compound 0.0316 µM
[20] = second compound 0.1 µM, first compound 0.1 µM
[21] = second compound 0.1 µM, first compound 0.316 µM
[22] = second compound 0.1 µM, first compound 1 µM
[23] = second compound 0.1 µM, first compound 3.16 µM
[24] = second compound 0.1 µM, first compound 10 µM
[25] = second compound 0.316 µM, first compound 0.0316 µM
[26] = second compound 0.316 µM, first compound 0.1 µM
[27] = second compound 0.316 µM, first compound 0.316 µM
[28] = second compound 0.316 µM, first compound 1 µM
[29] = second compound 0.316 µM, first compound 3.16 µM
[30] = second compound 0.316 µM, first compound 10 µM
[31] = second compound 1 µM, first compound 0.0316 µM
[32] = second compound 1 µM, first compound 0.1 µM
[33] = second compound 1 µM, first compound 0.316 µM
[34] = second compound 1 µM, first compound 1 µM
[35] = second compound 1 µM, first compound 3.16 µM
[36] = second compound 1 µM, first compound 10 µM
[37] = second compound 0.00316 µM, first compound 0.00316 µM
[38] = second compound 0.00316 µM, first compound 0.01 µM
[39] = second compound 0.01 µM, first compound 0.00316 µM
[40] = second compound 0.01 µM, first compound 0.01 µM
[41] = second compound 0.0316 µM, first compound 0.00316 µM
[42] = second compound 0.0316 µM, first compound 0.01 µM
[43] = second compound 0.1 µM, first compound 0.00316 µM
[44] = second compound 0.1 µM, first compound 0.01 µM
[45] = second compound 0.316 µM, first compound 0.00316 µM
[46] = second compound 0.316 µM, first compound 0.01 µM
[47] = second compound 1 µM, first compound 0.00316 µM
[48] = second compound 1 µM, first compound 0.01 µM
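Note: spheroids exposed to compounds for seven days.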
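Throughout, for viability, T/C: 100% = DMSO vehicle control viability.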

IC50 (second compound 0.00316 µM): 2420 nM | IC50 (second compound 0.01 µM): 1210 nM | IC50 (second compound 0.0316 µM): 1620 nM | IC50 (second compound 0.1 µM): < 31.6 nM | IC50 (second compound 0.316 µM): < 31.6 nM | IC50 (second compound 1 µM): < 31.6 nM
SMILES: CC(C)NCC(C(=O)N1CCN(c2ncnc3c2C(C)CC3O)CC1)c1ccc(Cl)cc1 (stereo not drawn) + COc1c(OCCCN2CCOCC2)ccc2c3n(c(=NC(=O)c4cnc(N)nc4)nc12)CCN3
viability, T/C [1]: 97.3% | viability, T/C [2]: 99% | viability, T/C [3]: 83% | viability, T/C [4]: 64.3% | viability, T/C [5]: 46.9% | viability, T/C [6]: 33% | viability, T/C [7]: 85.9% | viability, T/C [8]: 97.1% | viability, T/C [9]: 81.1% | viability, T/C [10]: 52% | viability, T/C [11]: 39.2% | viability, T/C [12]: 29.8% | viability, T/C [13]: 74.8% | viability, T/C [14]: 73.6% | viability, T/C [15]: 59.9% | viability, T/C [16]: 63.2% | viability, T/C [17]: 33% | viability, T/C [18]: 26.1% | viability, T/C [19]: 42.6% | viability, T/C [20]: 38.6% | viability, T/C [21]: 36.9% | viability, T/C [22]: 34% | viability, T/C [23]: 23.9% | viability, T/C [24]: 18.6% | viability, T/C [25]: 15.2% | viability, T/C [26]: 18.4% | viability, T/C [27]: 15.9% | viability, T/C [28]: 17.6% | viability, T/C [29]: 16.3% | viability, T/C [30]: 8.87% | viability, T/C [31]: 10.8% | viability, T/C [32]: 11.6% | viability, T/C [33]: 9.87% | viability, T/C [34]: 13.1% | viability, T/C [35]: 10.6% | viability, T/C [36]: 5.77%

IC50 (second compound 0.00316 µM): > 1000 nM | IC50 (second compound 0.01 µM): > 1000 nM | IC50 (second compound 0.0316 µM): > 1000 nM | IC50 (second compound 0.1 µM): < 3.16 nM | IC50 (second compound 0.316 µM): < 3.16 nM | IC50 (second compound 1 µM): < 3.16 nM
SMILES: CCN1CCN(Cc2ccc(Nc3ncc(F)c(-c4cc(F)c5nc(C)n(C(C)C)c5c4)n3)nc2)CC1 + COc1c(OCCCN2CCOCC2)ccc2c3n(c(=NC(=O)c4cnc(N)nc4)nc12)CCN3
viability, T/C [37]: 99.7% | viability, T/C [38]: 102% | viability, T/C [1]: 117% | viability, T/C [2]: 111% | viability, T/C [3]: 119% | viability, T/C [4]: 105% | viability, T/C [39]: 98.6% | viability, T/C [40]: 91% | viability, T/C [7]: 99% | viability, T/C [8]: 125% | viability, T/C [9]: 113% | viability, T/C [10]: 102% | viability, T/C [41]: 83.7% | viability, T/C [42]: 86.6% | viability, T/C [13]: 77.3% | viability, T/C [14]: 80.7% | viability, T/C [15]: 90% | viability, T/C [16]: 80% | viability, T/C [43]: 43.1% | viability, T/C [44]: 44% | viability, T/C [19]: 43.4% | viability, T/C [20]: 36.6% | viability, T/C [21]: 41.9% | viability, T/C [22]: 45.9% | viability, T/C [45]: 13.6% | viability, T/C [46]: 15.5% | viability, T/C [25]: 14.5% | viability, T/C [26]: 16.4% | viability, T/C [27]: 19.8% | viability, T/C [28]: 30% | viability, T/C [47]: 11.4% | viability, T/C [48]: 14.3% | viability, T/C [31]: 13.9% | viability, T/C [32]: 11.7% | viability, T/C [33]: 18.3% | viability, T/C [34]: 27.4%

IC50 (second compound 0.00316 µM): 930 nM | IC50 (second compound 0.01 µM): 678 nM | IC50 (second compound 0.0316 µM): 280 nM | IC50 (second compound 0.1 µM): < 31.6 nM | IC50 (second compound 0.316 µM): < 31.6 nM | IC50 (second compound 1 µM): < 31.6 nM
SMILES: Cn1ncc(Cl)c1-c1cc(C(=O)NC(CN)Cc2cccc(F)c2)sc1Cl (stereo not drawn) + COc1c(OCCCN2CCOCC2)ccc2c3n(c(=NC(=O)c4cnc(N)nc4)nc12)CCN3
viability, T/C [1]: 107% | viability, T/C [2]: 84.7% | viability, T/C [3]: 71% | viability, T/C [4]: 46.7% | viability, T/C [5]: 36.6% | viability, T/C [6]: 35.5% | viability, T/C [7]: 100% | viability, T/C [8]: 99% | viability, T/C [9]: 69.2% | viability, T/C [10]: 41.6% | viability, T/C [11]: 30.8% | viability, T/C [12]: 36.8% | viability, T/C [13]: 99.3% | viability, T/C [14]: 61.9% | viability, T/C [15]: 53.7% | viability, T/C [16]: 36.4% | viability, T/C [17]: 25.2% | viability, T/C [18]: 25.5% | viability, T/C [19]: 49.4% | viability, T/C [20]: 43.5% | viability, T/C [21]: 41.4% | viability, T/C [22]: 27.1% | viability, T/C [23]: 20.2% | viability, T/C [24]: 15.4% | viability, T/C [25]: 17.5% | viability, T/C [26]: 18.1% | viability, T/C [27]: 15.2% | viability, T/C [28]: 16.6% | viability, T/C [29]: 13% | viability, T/C [30]: 5.97% | viability, T/C [31]: 12.7% | viability, T/C [32]: 12.4% | viability, T/C [33]: 13.6% | viability, T/C [34]: 12.3% | viability, T/C [35]: 9.74% | viability, T/C [36]: 3.3%

IC50 (second compound 0.00316 µM): > 100 nM | IC50 (second compound 0.01 µM): > 100 nM | IC50 (second compound 0.0316 µM): > 100 nM | IC50 (second compound 0.1 µM): < 0.316 nM | IC50 (second compound 0.316 µM): < 0.316 nM | IC50 (second compound 1 µM): < 0.316 nM
SMILES: Cn1ncnc1[C@H]1c2n[nH]c(=O)c3cc(F)cc(c23)N[C@@H]1c1ccc(F)cc1 + COc1c(OCCCN2CCOCC2)ccc2c3n(c(=NC(=O)c4cnc(N)nc4)nc12)CCN3
viability, T/C (second compound 0.00316 µM, first compound 0.000316 µM): 97.5% | viability, T/C (second compound 0.00316 µM, first compound 0.001 µM): 95.9% | viability, T/C [37]: 107% | viability, T/C [38]: 111% | viability, T/C [1]: 97.9% | viability, T/C [2]: 93.1% | viability, T/C (second compound 0.01 µM, first compound 0.000316 µM): 106% | viability, T/C (second compound 0.01 µM, first compound 0.001 µM): 107% | viability, T/C [39]: 99% | viability, T/C [40]: 89.6% | viability, T/C [7]: 87.9% | viability, T/C [8]: 87.3% | viability, T/C (second compound 0.0316 µM, first compound 0.000316 µM): 68.4% | viability, T/C (second compound 0.0316 µM, first compound 0.001 µM): 97.1% | viability, T/C [41]: 75.8% | viability, T/C [42]: 71.5% | viability, T/C [13]: 64.2% | viability, T/C [14]: 65.1% | viability, T/C (second compound 0.1 µM, first compound 0.000316 µM): 39.6% | viability, T/C (second compound 0.1 µM, first compound 0.001 µM): 49.8% | viability, T/C [43]: 46.6% | viability, T/C [44]: 43.6% | viability, T/C [19]: 42.4% | viability, T/C [20]: 37.1% | viability, T/C (second compound 0.316 µM, first compound 0.000316 µM): 17.3% | viability, T/C (second compound 0.316 µM, first compound 0.001 µM): 18.4% | viability, T/C [45]: 15.1% | viability, T/C [46]: 15.7% | viability, T/C [25]: 12.8% | viability, T/C [26]: 15.7% | viability, T/C (second compound 1 µM, first compound 0.000316 µM): 11.8% | viability, T/C (second compound 1 µM, first compound 0.001 µM): 14.1% | viability, T/C [47]: 14.5% | viability, T/C [48]: 12.5% | viability, T/C [31]: 13.9% | viability, T/C [32]: 10.1%
